According to patent US3956328A, “S-triazolo(1,5-a)pyridine derivative” (Kyorin Seiyaku Kabushiki Kaisha, priority 1973, dated 1976):
Values joined by “and” are separate entries in the source; they are usually repeats but may differ in a detail not shown here. Equal values may be shown once. “Also recorded” adds a separate entry of the source.

Columns and labels:
[1] = Acute oral toxicity in mice; assay type: in vivo; details: mouse, in vivo, po
Method: (§1) That of homochlorcyclyzine used as a standard drug is reported to be 353 mg/kg for mice.

ddN mice = assay: Acute oral toxicity in mice; assay type: in vivo; details: acute oral
Method: as §1

[2] = Acute oral toxicity in rats; details: rat, in vivo
Method: as §1

[3] = system: BSA induced asthma in guinea pigs; assay: Inhibitory action on BSA-induced (experimentally allergic) asthma attack in passively sensitized guinea pigs; assay type: in vivo, guinea pig; design: key to z1 (statistical value vs non treatment): Mann-Whitney U z statistic, treated vs non-treated; details: for p (statistical significance vs non treatment) / z1 (statistical value vs non treatment) / p (present compound vs homochlorcyclizine) / z2 (statistical value, present compound vs homochlorcyclizine): severity; for z1 (statistical value vs non treatment) / z2 (statistical value, present compound vs homochlorcyclizine): Mann and Whitney U test
Method: The present compound is studied on asthma attacks induced by the antigen-antibody reaction in guinea pigs. The guinea pigs are sensitized passively by the injection of 0.1 to 0.3 ml /100g body weight of rabbit antiserum to BSA (bovine serum albumin) into the ear vein. Forty six hours after passive sensitization, the guinea pigs are orally given the tested compounds. Two hours after oral administration, the asthma attack is provoked by an aerosol injection (0.1 ml/min.) of 1% BSA solution in physiological saline into the plastic chamber in which the testing guinea pig is placed. The symptoms of the asthma attack are observed for 10 minutes and scored on the following shock indices. The shock indices are examined by the shock grades, No. of collapsed guinea pigs/No. of used animals and survival rate.
The shock grades are as follows:
1 slight stimulation of expiration
2 stimulation of expiration (labored expiration)
3 attack of singultation
4 the strongest attack of collapse and struggle
but recovery from collapse within 5 minutes
5 recovery from collapse within 5 to 10 minutes
6 interruption of expiration to death within 10
*Statistical comparisons were carried out with the Mann and Whitneys' U
z1 : The statistical value between non treatment and each tested
z2 : The statistical value between the present compound and […]

[4] = system: histamine-induced asthma attack; assay: Inhibitory action on histamine-induced asthma attack in guinea pigs; assay type: in vivo, guinea pig; details: for z1 (statistical value): Mann and Whitney U test
Method: Inhibitory actions on histamine-induced asthma attack: Male guinea pigs, of about 300 g body weight are used. Asthma attack is provoked by an aerosol of 0.2% histamine dihydrochloride solution in physiological saline for 10 minutes. The inhibitory actions are examined by shock grades, No. of collapsed guinea pigs/No. of provoked guinea pigs and survival rate. The tested compounds are orally given 2 hrs. prior to spraying of histamine solution.
A/B: No. of collapsed guinea pigs/ No. of provoked guinea pigs.
Statistical comparisons were carried out with the Mann and Whtineys' U

[5] = system: guinea pig tracheal chain strips; assay: Anti histaminic action: histamine-induced contraction of guinea pig tracheal chain strips; details: 4×10^^-5 M; Tyrodes solution
[6] = system: anti acetylcholinergic action; assay: Anti cholinergic action
[7] = system: heterologous PCA in guinea pigs; assay: Heterologous passive cutaneous anaphylaxis (PCA) in guinea pigs; assay type: in vivo, guinea pig; details: 25 mg/kg po, 30 min. before challenge; rabbit antiserum to egg albumin
Method: Male guinea pigs are passively sensitized by the intradermal injection of rabbit antiserum to egg albumin and challenged by the intravenous injection of egg albumin 4 hrs. after the sensitization. The test compounds are orally given 30 min. before the challenge.

homologous PCA in rats [8] = assay: Homologous PCA in Wistar rats; assay type: in vivo, rat (Wistar); details: for Inhibition % of extravasation of blue dye: Wistar, egg albumin, 30 min. before challenge, 72 hrs. after sensitization
Text: (§2) Male wistar or SD rats are passively sensitized by Motas method (Immunology 7, 681, 1964) and challenged by the intravenous injection of wistar or SD rat antiserum to egg albumin or horse serum. The inhibitory action of the present compound on homologous PCA (induced by reaginlike, mast cell sensitizing antibody) is shown in Table 5.

homologous PCA in rats [9] = assay: Homologous PCA in SD rats; assay type: in vivo, rat (SD)
Text: as §2

guinea pig ileum = assay: Schultz-Dale reaction in guinea pig ileum sensitized actively with egg albumin; details: actively-sensitized guinea pig ileum
Method: Male guinea pigs are actively sensitized and their ileum preparations are treated by Schultz-Dales method (J. Pharmacol. Exp. Ther., 4, 167, 1913). […] These preceeding pharmacological properties of the present compound are due to triazolo [1,5-a]pyridine.

[10] = antiserum 0.1 ml/100 g, 0.5 mg/kg p.o.
[11] = antiserum 0.1 ml/100 g, 1.0 mg/kg p.o.
[12] = antiserum 0.1 ml/100 g, 5.0 mg/kg p.o.
[13] = antiserum 0.2 ml/100 g, 5 mg/kg p.o.
[14] = antiserum 0.3 ml/100 g, 5 mg/kg p.o.
[15] = 2.50 mg/kg p.o. vs homochlorcyclizine (250 mg/kg (so in the source))

c1ccc(C(c2ccccc2)N2CCN(CCCc3nc4ccccn4n3)CC2)cc1 [the present compound, 2-[3-(4-diphenylmethyl-1-piperazinyl)propyl] -s-triazolo[1,5-a]pyridine]
LD50 ([1]; female ddN mice, confidence limit 418-563 mg/kg): 485 mg/kg | LD50 ([1]; male ddN mice, confidence limit 507-768 mg/kg): 625 mg/kg | toxicity compared with homochlorcyclizine (ddN mice): lower toxicity than that of homochlorcyclizine | LD50 ([2]; male wistar rats, confidence limit 1,05l-1, 790 mg/kg): 1370 mg/kg | LD50 ([2]; po, female wistar rats): < 450 mg/kg | severe asthma attack ([3]; 5 mg/kg dose): suppresses completely severe asthma attack | A/B: No. of collapsed / No. of provoked guinea pigs [3, 10]: 3/6 | A/B: collapsed guinea pigs, percentage [3, 10]: 50% | Survival rate (animals) [3, 10]: 5/6 | Survival rate, percentage [3, 10]: 83.3% | A/B: No. of collapsed / No. of provoked guinea pigs [3, 11]: 4/10 | A/B: collapsed guinea pigs, percentage [3, 11]: 40% | Survival rate (animals) [3, 11]: 10/10 | Survival rate, percentage [3, 11]: 100% | A/B: No. of collapsed / No. of provoked guinea pigs [3, 12]: 0/6 | A/B: collapsed guinea pigs, percentage [3, 12]: 0% | Survival rate (animals) [3, 12]: 6/6 | Survival rate, percentage [3, 12]: 100% | A/B: No. of collapsed / No. of provoked guinea pigs [3, 13]: 0/6 | A/B: collapsed guinea pigs, percentage [3, 13]: 0% | Survival rate (animals) [3, 13]: 6/6 | Survival rate, percentage [3, 13]: 100% | A/B: No. of collapsed / No. of provoked guinea pigs [3, 14]: 0/5 | A/B: collapsed guinea pigs, percentage [3, 14]: 0% | Survival rate (animals) [3, 14]: 5/5 | Survival rate, percentage [3, 14]: 100% | incidences of asthma attack vs non treated ([3]; more than 0.5 mg/kg dose): inhibits significantly | collapse ([3]; more than oral 5 mg/kg dose): completely inhibits collapse | inhibitory action on asthma attack compared with homochlorcyclizine ([3]; oral): more significant; also recorded: prohibits the asthma attack more significantly than that of homochlorocyclizine | shock death ([3]; oral 1 mg/kg): inhibits shock death | p (statistical significance vs non treatment) [3, 10]: < 0.01 | z1 (statistical value vs non treatment) [3, 10]: 2.618 | p (statistical significance vs non treatment) [3, 11]: < 0.0001 | z1 (statistical value vs non treatment) [3, 11]: 4.032 | p (statistical significance vs non treatment) [3, 12]: < 0.001 | z1 (statistical value vs non treatment) [3, 12]: 3.686 | p (present compound vs homochlorcyclizine) [3, 13]: < 0.04 | p (statistical significance vs non treatment) [3, 13]: < 0.0001 | z1 (statistical value vs non treatment) [3, 13]: 4.112 | z2 (statistical value, present compound vs homochlorcyclizine) [3, 13]: 2.067 | p (present compound vs homochlorcyclizine) [3, 14]: < 0.05 | p (statistical significance vs non treatment) [3, 14]: < 0.001 | z1 (statistical value vs non treatment) [3, 14]: 3.26 | z2 (statistical value, present compound vs homochlorcyclizine) [3, 14]: 2.008 | A/B: No. of collapsed / No. of provoked guinea pigs ([4]; 0.156 mg/kg p.o.): 10/10 | A/B: collapsed guinea pigs, number in parentheses (percentage) ([4]; 0.156 mg/kg p.o.): 100 | Survival rate (animals) ([4]; 0.156 mg/kg p.o.): 0/10 | Survival rate, number in parentheses (percentage) ([4]; 0.156 mg/kg p.o.): 0 | A/B: No. of collapsed / No. of provoked guinea pigs ([4]; 0.313 mg/kg p.o.): 10/10 | A/B: collapsed guinea pigs, number in parentheses (percentage) ([4]; 0.313 mg/kg p.o.): 100 | Survival rate (animals) ([4]; 0.313 mg/kg p.o.): 10/10 | Survival rate, number in parentheses (percentage) ([4]; 0.313 mg/kg p.o.): 100 | significance of difference from non treatment 1 ([4]; 0.313 mg/kg p.o.): markedly significant difference | z1 (statistical value) ([4]; 0.313 mg/kg p.o. vs non treatment 1): > 5 | A/B: No. of collapsed / No. of provoked guinea pigs ([4]; 0.625 mg/kg p.o.): 9/10 | A/B: collapsed guinea pigs, number in parentheses (percentage) ([4]; 0.625 mg/kg p.o.): 90 | Survival rate, number in parentheses (percentage) ([4]; 0.625 mg/kg p.o.): 100 | significance of difference from non treatment 1 ([4]; 0.625 mg/kg p.o.): markedly significant difference | z1 (statistical value) ([4]; 0.625 mg/kg p.o. vs non treatment 1): > 5 | A/B: No. of collapsed / No. of provoked guinea pigs ([4]; 1.25 mg/kg p.o.): 4/10 | A/B: collapsed guinea pigs, number in parentheses (percentage) ([4]; 1.25 mg/kg p.o.): 40 | Survival rate (animals) ([4]; 1.25 mg/kg p.o.): 10/10 | Survival rate, number in parentheses (percentage) ([4]; 1.25 mg/kg p.o.): 100 | significance of difference from non treatment 1 ([4]; 1.25 mg/kg p.o.): markedly significant difference | z1 (statistical value) ([4]; 1.25 mg/kg p.o. vs non treatment 1): > 5 | A/B: No. of collapsed / No. of provoked guinea pigs ([4]; 2.50 mg/kg p.o.): 1/11 | A/B: collapsed guinea pigs, number in parentheses (percentage) ([4]; 2.50 mg/kg p.o.): 9.1 | Survival rate (animals) ([4]; 2.50 mg/kg p.o.): 11/11 | Survival rate, number in parentheses (percentage) ([4]; 2.50 mg/kg p.o.): 100 | significance of difference from non treatment 1 ([4]; 2.50 mg/kg p.o.): markedly significant difference | p (significant difference from homochlorcyclizine) [4, 15]: < 0.02 | z2 (statistical value) [4, 15]: 2.332 | z1 (statistical value) ([4]; 2.50 mg/kg p.o. vs non treatment 1): > 5 | A/B: No. of collapsed / No. of provoked guinea pigs ([4]; 10.0 mg/kg p.o.): 0/6 | A/B: collapsed guinea pigs, number in parentheses (percentage) ([4]; 10.0 mg/kg p.o.): 0 | Survival rate (animals) ([4]; 10.0 mg/kg p.o.): 6/6 | Survival rate, number in parentheses (percentage) ([4]; 10.0 mg/kg p.o.): 100 | p (significant difference from non treatment 2) ([4]; 10.0 mg/kg p.o.): < 0.0005 | p for z2 (significant difference from non treatment 1 (so in the source)) ([4]; 10.0 mg/kg p.o.): < 0.005 | z2 (statistical value) ([4]; 10.0 mg/kg p.o. vs non treatment 1 (so in the source)): 2.844 | z1 (statistical value) ([4]; 10.0 mg/kg p.o. vs non treatment 2): 3.321 | inhibition of asthma attack compared to non treatment and homochlorcyclizine ([4]; oral, 2 hrs. prior to histamine): markedly and significantly inhibits asthma attack | inhibitory rate on histamine-induced contraction [5]: 124% | anti acetylcholinergic action [6]: not found to have anti acetylcholinergic action | Inhibition % of extravasation of blue dye [7]: 57.8% | inhibition of reaginlike, mast cell sensitizing antibody-induced PCA (homologous PCA in rats [8]; Wistar rat, oral): markedly inhibits | Inhibition % of extravasation of blue dye (homologous PCA in rats [8]; 25 mg/kg po): 64.3% | Inhibition % of extravasation of blue dye (homologous PCA in rats [8]; 50 mg/kg po): 88.8% | inhibition of reaginlike, mast cell sensitizing antibody-induced PCA (homologous PCA in rats [9]; SD rat, oral): markedly inhibits | Inhibition % of extravasation of blue dye (homologous PCA in rats [9]; SD, horse serum, 100 mg/kg po, 3 hrs. before challenge, 48 hrs. after sensitization): 94.8% and 94% | inhibition of Schultz-Dale reaction (guinea pig ileum): markedly inhibits Schultz-Dale reaction
